Test results: patent US9682965B2, “Fumagillol heterocyclic compounds and methods of making and using same” (Zafgen, Inc., priority 2015, dated 2017)
Counter-ions that a name gives are not always drawn.

Each compound was assayed on Diet Induced Obese (DIO) C57BL/6 mice (assay: 10 day DIO mouse model (body weight, food intake, hematology, blood chemistry)). Settings: 240 h; DIO mouse, 0.3 mpk sc, once a day for 10 days; read-out: DIO Mouse 10-day weight loss vs vehicle.
Format: in vivo
Source text: The objective of this study design was to investigate the efficacy of disclosed compounds in a 10 day DIO mouse model. Effects on body weight, food intake, hematology and blood chemistry were the primary readouts of this study design. […] Mice were fed Research Diets D12492 (60% Kcal fat, 20% Kcal carbohydrate and 20% protein) and provided water ad libitum. DIO mice were received and housed in the facility for approximately two weeks prior to the start of test article administration. On Day −4 or −3, mice were randomized into study groups based on body weight and body weights were continued to be recorded daily for the duration of the study. Daily food intake was assessed starting on Study Day −2 by weighing of the food with hopper together to avoid loss of food in transfer.
Compounds were formulated into a 100% DMSO stock (at 9 mg/mL) prior to the start, and further diluted into the target working concentration using the vehicle of 10% DMSO in water. Prior to test article administration, starting on Day −3 a dosing acclimation occured with all animals receiving a subcutaneous injection of vehicle (10% DMSO) only for 3 days. Starting on Day 1, test compounds or vehicle were administered based on individual body weight, subcutaneously, once a day for 10 days. All mice were sacrificed on Day 11, 24 hours following the final dosing on Day 10. After sacrifice, whole blood was collected and analyzed for hematology and blood chemistry parameters.
Compounds were tested vs. vehicle at various doses (1.0, 0.5, 0.3, 0.1, 0.03 mpk sc (mg per kg animal weight delivered subcutaneously), and the results are shown in Table 2 below.

**Q.** For CO[C@@H]1[C@H](OC(=O)N2CC(CCN3CC(C)(C(=O)N(C)C)C3)C2)CC[C@]2(CO2)[C@H]1[C@@]1(C)O[C@@H]1CC=C(C)C [Example 20, (3R,4S,5S,6R)-5-methoxy-4-((2R,3R)-2-methyl-3-(3-methylbut-2-enyl)oxiran-2-yl)-1-oxaspiro[2.5]octan-6-yl 3-(2-(3-(dimethylcarbamoyl)-3-methylazetidin-1-yl)ethyl)azetidine-1-carboxylate], which inhibition in vivo at 0.3 mg/kg is on record?
**A.** 2.1%

**Q.** How did the inhibition in vivo at 0.3 mg/kg turn out when CO[C@H]1CCN(CCC2CN(C(=O)O[C@@H]3CC[C@]4(CO4)[C@@H]([C@@]4(C)O[C@@H]4CC=C(C)C)[C@@H]3OC)C2)C1 [Example 25, (3R,4S,5S,6R)-5-methoxy-4-((2R,3R)-2-methyl-3-(3-methylbut-2-enyl)oxiran-2-yl)-1-oxaspiro[2.5]octan-6-yl 3-(2-((S)-3-methoxypyrrolidin-1-yl)ethyl)azetidine-1-carboxylate] was run?
**A.** 4.8%

**Q.** CO[C@@H]1CCN(CCC2CN(C(=O)O[C@@H]3CC[C@]4(CO4)[C@@H]([C@@]4(C)O[C@@H]4CC=C(C)C)[C@@H]3OC)C2)C1 [Example 26, (3R,4S,5S,6R)-5-methoxy-4-((2R,3R)-2-methyl-3-(3-methylbut-2-enyl)oxiran-2-yl)-1-oxaspiro[2.5]octan-6-yl 3-(2-((R)-3-methoxypyrrolidin-1-yl)ethyl)azetidine-1-carboxylate] was tested. Which inhibition in vivo at 0.3 mg/kg did it give?
**A.** 4.1%

**Q.** How did the inhibition in vivo at 0.3 mg/kg turn out when CO[C@@H]1[C@H](OC(=O)N2CC(CCN3CC[C@@H](F)C3)C2)CC[C@]2(CO2)[C@H]1[C@@]1(C)O[C@@H]1CC=C(C)C [Example 27, (3R,4S,5S,6R)-5-methoxy-4-((2R,3R)-2-methyl-3-(3-methylbut-2-enyl)oxiran-2-yl)-1-oxaspiro[2.5]octan-6-yl 3-(2-((R)-3-fluoropyrrolidin-1-yl)ethyl)azetidine-1-carboxylate] was run?
**A.** 13.3%

**Q.** How did the inhibition in vivo at 0.3 mg/kg turn out when CO[C@@H]1[C@H](OC(=O)N2CC(CCN3CC[C@H](F)C3)C2)CC[C@]2(CO2)[C@H]1[C@@]1(C)O[C@@H]1CC=C(C)C [Example 28, (3R,4S,5S,6R)-5-methoxy-4-((2R,3R)-2-methyl-3-(3-methylbut-2-enyl)oxiran-2-yl)-1-oxaspiro[2.5]octan-6-yl 3-(2-((S)-3-fluoropyrrolidin-1-yl)ethyl)azetidine-1-carboxylate] was run?
**A.** 12.7%

**Q.** With CO[C@@H]1[C@H](OC(=O)N2CC(CCN3CCC(C)(C#N)CC3)C2)CC[C@]2(CO2)[C@H]1[C@@]1(C)O[C@@H]1CC=C(C)C [Example 29, (3R,4S,5S,6R)-5-methoxy-4-((2R,3R)-2-methyl-3-(3-methylbut-2-enyl)oxiran-2-yl)-1-oxaspiro[2.5]octan-6-yl 3-(2-(4-cyano-4-methylpiperidin-1-yl)ethyl)azetidine-1-carboxylate] as the compound, how does the inhibition in vivo at 0.3 mg/kg read?
**A.** 10.7%

**Q.** CO[C@@H]1[C@H](OC(=O)N2CC(CCN3CCC(F)CC3)C2)CC[C@]2(CO2)[C@H]1[C@@]1(C)O[C@@H]1CC=C(C)C [Example 30, (3R,4S,5S,6R)-5-methoxy-4-((2R,3R)-2-methyl-3-(3-methylbut-2-enyl)oxiran-2-yl)-1-oxaspiro[2.5]octan-6-yl 3-(2-(4-fluoropiperidin-1-yl)ethyl)azetidine-1-carboxylate] was tested. Which inhibition in vivo at 0.3 mg/kg did it give?
**A.** 9.1%

**Q.** With CO[C@@H]1[C@H](OC(=O)N2CC(CCN3[C@@H]4CC[C@H]3COC4)C2)CC[C@]2(CO2)[C@H]1[C@@]1(C)O[C@@H]1CC=C(C)C [Example 31, (3R,4S,5S,6R)-5-methoxy-4-((2R,3R)-2-methyl-3-(3-methylbut-2-enyl)oxiran-2-yl)-1-oxaspiro[2.5]octan-6-yl 3-(2-((1R,5S)-3-oxa-8-azabicyclo[3.2.1]octan-8-yl)ethyl)azetidine-1-carboxylate] as the compound, how does the inhibition in vivo at 0.3 mg/kg read?
**A.** 4.2%

**Q.** For CO[C@@H]1[C@H](OC(=O)N2CC(CCN3C4CCC3CC4)C2)CC[C@]2(CO2)[C@H]1[C@@]1(C)O[C@@H]1CC=C(C)C [Example 32, (3R,4S,5S,6R)-5-methoxy-4-((2R,3R)-2-methyl-3-(3-methylbut-2-enyl)oxiran-2-yl)-1-oxaspiro[2.5]octan-6-yl 3-(2-((1S,4S)-7-azabicyclo[2.2.1]heptan-7-yl)ethyl)azetidine-1-carboxylate], which inhibition in vivo at 0.3 mg/kg is on record?
**A.** 0.5%

**Q.** With CO[C@@H]1[C@H](OC(=O)N2CC(CCN3CCN(CC(F)F)CC3=O)C2)CC[C@]2(CO2)[C@H]1[C@@]1(C)O[C@@H]1CC=C(C)C [Example 35, (3R,4S,5S,6R)-5-methoxy-4-((2R,3R)-2-methyl-3-(3-methylbut-2-enyl)oxiran-2-yl)-1-oxaspiro[2.5]octan-6-yl 3-(2-(4-(2,2-difluoroethyl)-2-oxopiperazin-1-yl)ethyl)azetidine-1-carboxylate] as the compound, how does the inhibition in vivo at 0.3 mg/kg read?
**A.** 21.3%

**Q.** How did the inhibition in vivo at 0.3 mg/kg turn out when CO[C@@H]1[C@H](OC(=O)N2CC(CCN3CCC(C#N)(C#N)CC3)C2)CC[C@]2(CO2)[C@H]1[C@@]1(C)O[C@@H]1CC=C(C)C [Example 36, (3R,4S,5S,6R)-5-methoxy-4-((2R,3R)-2-methyl-3-(3-methylbut-2-enyl)oxiran-2-yl)-1-oxaspiro[2.5]octan-6-yl 3-(2-(4,4-dicyanopiperidin-1-yl)ethyl)azetidine-1-carboxylate] was run?
**A.** 11.2%

**Q.** CCN(CC)C[C@H]1CCN(C(=O)O[C@@H]2CC[C@]3(CO3)[C@@H]([C@@]3(C)O[C@@H]3CC=C(C)C)[C@@H]2OC)C1 [Example 38, (R)-((3R,4S,5S,6R)-5-methoxy-4-((2R,3R)-2-methyl-3-(3-methylbut-2-enyl)oxiran-2-yl)-1-oxaspiro[2.5]octan-6-yl) 3-((diethylamino)methyl)pyrrolidine-1-carboxylate formate] was tested. Which inhibition in vivo at 0.3 mg/kg did it give?
**A.** 6.7%

**Q.** For CO[C@@H]1[C@H](OC(=O)N2CC(CCN3CCOCC3=O)C2)CC[C@]2(CO2)[C@H]1[C@@]1(C)O[C@@H]1CC=C(C)C [Example 39, (3R,4S,5S,6R)-5-methoxy-4-((2R,3R)-2-methyl-3-(3-methylbut-2-enyl)oxiran-2-yl)-1-oxaspiro[2.5]octan-6-yl 3-(2-(3-oxomorpholino)ethyl)azetidine-1-carboxylate], which inhibition in vivo at 0.3 mg/kg is on record?
**A.** 1.7%

**Q.** CO[C@@H]1[C@H](OC(=O)N2CC[C@H]2CN2CCCC2)CC[C@]2(CO2)[C@H]1[C@@]1(C)O[C@@H]1CC=C(C)C [Example 41, (S)-((3R,4S,5S,6R)-5-methoxy-4-((2R,3R)-2-methyl-3-(3-methylbut-2-enyl)oxiran-2-yl)-1-oxaspiro[2.5]octan-6-yl) 2-(pyrrolidin-1-ylmethyl)azetidine-1-carboxylate formate] was tested. Which inhibition in vivo at 0.3 mg/kg did it give?
**A.** 4.4%

**Q.** Which inhibition in vivo at 0.3 mg/kg does the source give for CO[C@@H]1[C@H](OC(=O)N2CC[C@@H]2CN2CCCC2)CC[C@]2(CO2)[C@H]1[C@@]1(C)O[C@@H]1CC=C(C)C [Example 42, (R)-((3R,4S,5S,6R)-5-methoxy-4-((2R,3R)-2-methyl-3-(3-methylbut-2-enyl)oxiran-2-yl)-1-oxaspiro[2.5]octan-6-yl) 2-(pyrrolidin-1-ylmethyl)azetidine-1-carboxylate formate] here?
**A.** 5.3%

**Q.** With CCN(CC)CC1CN(C(=O)O[C@@H]2CC[C@]3(CO3)[C@@H]([C@@]3(C)O[C@@H]3CC=C(C)C)[C@@H]2OC)CCO1 (stereo partly drawn) [Example 44, (3R,4S,5S,6R)-5-methoxy-4-((2R,3R)-2-methyl-3-(3-methylbut-2-enyl)oxiran-2-yl)-1-oxaspiro[2.5]octan-6-yl 2-((diethylamino)methyl)morpholine-4-carboxylate formate] as the compound, how does the inhibition in vivo at 0.3 mg/kg read?
**A.** 2.1%

**Q.** CO[C@@H]1[C@H](OC(=O)N2CC(CCN3CC[C@H](O)C3)C2)CC[C@]2(CO2)[C@H]1[C@@]1(C)O[C@@H]1CC=C(C)C [Example 46, (3R,4S,5S,6R)-5-methoxy-4-((2R,3R)-2-methyl-3-(3-methylbut-2-enyl)oxiran-2-yl)-1-oxaspiro[2.5]octan-6-yl 3-(2-((S)-3-hydroxypyrrolidin-1-yl)ethyl)azetidine-1-carboxylate formate] was tested. Which inhibition in vivo at 0.3 mg/kg did it give?
**A.** 5.2%

**Q.** Which inhibition in vivo at 0.3 mg/kg does the source give for CO[C@@H]1[C@H](OC(=O)N2CC(CCN3CC[C@@H](O)C3)C2)CC[C@]2(CO2)[C@H]1[C@@]1(C)O[C@@H]1CC=C(C)C [Example 47, (3R,4S,5S,6R)-5-methoxy-4-((2R,3R)-2-methyl-3-(3-methylbut-2-enyl)oxiran-2-yl)-1-oxaspiro[2.5]octan-6-yl 3-(2-((R)-3-hydroxypyrrolidin-1-yl)ethyl)azetidine-1-carboxylate] here?
**A.** 5.6%

**Q.** For CCN(CC)CC[C@H]1CCCN1C(=O)O[C@@H]1CC[C@]2(CO2)[C@@H]([C@@]2(C)O[C@@H]2CC=C(C)C)[C@@H]1OC [Example 50, (R)-((3R,4S,5S,6R)-5-methoxy-4-((2R,3R)-2-methyl-3-(3-methylbut-2-enyl)oxiran-2-yl)-1-oxaspiro[2.5]octan-6-yl) 2-(2-(diethylamino)ethyl)pyrrolidine-1-carboxylate formate], which inhibition in vivo at 0.3 mg/kg is on record?
**A.** 2.6%

**Q.** For CCN(CC)CC[C@@H]1CCCN1C(=O)O[C@@H]1CC[C@]2(CO2)[C@@H]([C@@]2(C)O[C@@H]2CC=C(C)C)[C@@H]1OC [Example 51, (S)-((3R,4S,5S,6R)-5-methoxy-4-((2R,3R)-2-methyl-3-(3-methylbut-2-enyl)oxiran-2-yl)-1-oxaspiro[2.5]octan-6-yl) 2-(2-(diethylamino)ethyl)pyrrolidine-1-carboxylate formate], which inhibition in vivo at 0.3 mg/kg is on record?
**A.** 4.3%
